# According to US9527817B2, “Compounds for treating peripheral; neuropathies and other neurodegenerative; disorders” (THE JOHNS HOPKINS UNIVERSITY, priority 2011, dated 2016):
# Entries after “also recorded” stand apart in the source; their conditions may differ.
# Columns and labels:
# [1] = system: hsp90; test: Colorimetric (malachite green) determination of hsp90 ATPase activity; format: biochemical; details: wide dose range of EQ
# Procedure: The assay procedure for the colorimetric determination of ATPase activity was based on Rowlands et al., “High-throughput Screening Assay for Inhibitors of Heat-Shock Protein 90 ATPase Activity,” Analytical Biochemistry 327:176-183 (2004). The malachite green reagent was prepared on the day of use. It contained malachite green (Sigma Aldrich, St. Louis, Mo.; 0.0812%, w/v), polyvinyl alcohol (Sigma Aldrich, St. Louis, Mo.; 2.32%, w/v), ammonium molybdate (Sigma Aldrich, St. Louis, Mo.; 5.72%, w/v, in 6 M HCl), and UltraPure Distilled Water (Invitrogen, Life Technologies, Carlsbad, Calif.), mixed in the ratio 2:1:1:2. The reagent was initially dark brown, and then it changed to a golden yellow after 2 h at room temperature, which meant it was ready for use. The assay buffer (pH 7.4) was 100 mM Tris-HCl, 20 mM KCl, 6 mM MgCl2.
# The test compounds were dissolved in 100% (v/v) DMSO to give a stock concentration of 10 mM. This solution was diluted to six appropriate concentrations with test compounds in the assay buffer. 5 μL of each compound solution was added to each well of the Perkin-Elmer 96-well assay plate. The first two rows of the 96-well plate contained DMSO only, representing the control and background values, respectively. […] The absorbance at 620 nm was measured using the SpectraMAX 340PC microplate reader (Molecular Devices, Palo Alto, Calif.). […]
# [2] = system: hsp90; test: Neuroprotection by EQ with hsp90 siRNA or control siRNA; format: cell-based, rat
# Procedure: For the RNA inhibition experiments, transfection with siRNA was carried out according to the manufacturer's protocol. 50B11 cells were plated in 6-well plates in culture medium (Neurobasal medium, 10% fetal bovine serum (FBS), 0.5 mM glutamine, 1×B-27 supplement, 0.2% glucose) without antibiotics overnight and allowed to reach 50-70% confluence. On the second day, 1 μL siRNA oligomer (Ambion, Life Technologies, Carlsbad, Calif.) was diluted in 250 μL Opti-MEM media, and 5 μL Lipofectation 2000 (Invitrogen, Life Technologies, Carlsbad, Calif.) in another 250 μL Opti-MEM media. After 5 minutes incubation, dilutions were combined and incubated for 20 minutes at RT and then the oligomer-Lipofectation 2000 complexes were added to each well. […]
# The protein isolation, protein electrophoresis (SDS-PAGE) and Western blotting assays were performed according to the instructions of the manufacturer. […] The measurements of total protein concentrations were performed using BCA kits (Thermo Scientific, Logan, Utah) on SpectraMax 340PC microplate reader (Molecular Devices, Palo Alto, Calif.). Samples (30 μg of total protein per well) and standards (SeeBlue® Plus2 Pre-Stained Standard, Invitrogen, Life Technologies, Carlsbad, Calif.) were loaded onto the wells (Ready Gel® 4-15% Tris-HCl, 50 μL^−1 gel; Bio-Rad, Hercules, Calif.). […]
# [3] = system: four different human breast cancer cell lines: MCE-7, SUM-159, TATD, and MDA-MB-231; test: Antineoplastic activity of paclitaxel with or without EQ (cellular ATP levels); format: cell-based; details: paclitaxel co-administered with varying concentrations of EQ
# Procedure: To determine the effect of EQ on the antineoplastic activity of paclitaxel, the conditions for culturing four cancer cell lines and measuring the ATP levels were optimized for the 96-well plate format. Briefly, 1500 cells/well in media (MDA-MB-231 in DMEM with 10% FBS; MCF-7 in DMEM with 10% FBS; TATD in RPMI with 10% FBS; SUM159 in DMEM/F-12 (250 mL/250 mL) with 5% FBS, 500 μL of 10 mg/mL insulin and 25 μL of 10 mg/mL hydrocordisol) were plated in 96-well plates for 24 h. Constant concentrations of paclitaxel (PTX) with or without EQ were added to the wells for another 24 h. Cellular ATP levels were measured using ViaLight Plus kit (Cambrex) according to the manufacturer's protocol on a LMaxI microplate reader (Molecular Devices, Palo Alto, Calif.).
# [4] = system: primary DRG neurons; test: Axon length assay, paclitaxel-induced distal axonal degeneration; format: cell-based, rat; details: 24 hours exposure, βIII-tubulin staining
# Procedure: Measurements of axonal lengths to determine axonal degeneration induced by EQ and representative derivatives were done as described in Keswani et al., “FK506 is neuroprotective in a model of antiretroviral toxic neuropathy,” Annals of Neurology, 53(1):57-64 (2003). Initially, dorsal root ganglia (DRG) cells were harvested from embryonic rats (14.5 days old) according to standard protocol, then cells were plated onto collagen-coated glass coverslips and allowed to extend axons for 24 h in media (Neurobasal medium, 50 mM PS, 0.2% fetal bovine serum (FBS), 0.5 mM glutamine, 1×B-27 supplement, 0.2% glucose, 10 ng/mL glial cell line-derived neurotrophic factor (GDNF)). Paclitaxel (PTX), EQ and representative derivatives, or vehicle controls were added to the wells for another 24 h incubation. DRG cells were fixed with 4% paraformaldehyde and stained with anti-βIII-tubulin antibody to delineate the axons. Axon lengths were measured in multiple fields using a random sampling method as described by Keswani et al., 2003. All experiments were performed in triplicates and repeated twice. Statistical analysis was done using the ANOVA procedure. Correction for multiple comparisons was completed with Fisher's protected least significant difference. Bars marked with * indicate statistically significant differences with p<0.05.
# [5] = system: hsp90; test: Binding efficacy of paclitaxel to hsp90 in the presence of EQ
# Procedure: Further, it was known that paclitaxel binds to hsp90. To determine if EQ was binding to the same site and displacing paclitaxel, the binding efficacy of paclitaxel to hsp90 was measured. […] It is possible that EQ binds to hsp90 and modifies its chaperone activity for an important client protein.
# [6] = target: recombinant hsp90; test: Fluorescence quenching binding assay; details: 25° C.
# Procedure: For the fluorescence-quenching assay, fluorescence intensity was recorded on a SpectraMax Gemini XS plate reader (Molecular Devices, Palo Alto, Calif.) using a 96-well black PCR plate (Thermo Scientific, Logan, Utah). Compounds (10 mM in ethanol) were diluted with 50 mM Tris-HCl (pH 7.4) to obtain a solution with a 15 μM final concentration. Aliquots of proteins were added to the compounds solution and mixed with micro pipette by gently pulling in and drawing out the solution. Fluorescence intensities (λex=350 nm, λem=450 nm) were measured at 25° C. Equilibrium dissociation constant KD was obtained by fitting the data using the nonlinear least squares option of the GraphPad Prism software. All experiments were completed in duplicates and repeated at least three times.
# To determine the binding efficiency, fluorescence quenching experiments were carried out with recombinant hsp90.
# [7] = system: AJ mice treated with PTX; test: Mouse model of chemotherapy induced peripheral neuropathy (paclitaxel); format: in vivo; details: various doses daily, PTX 25 mg/kg i.v. days 1, 3, 5
# Procedure: In this model, animals develop thermal hypoalgesia and reduction in sensory nerve action potential (SNAP) amplitudes. AJ mice were given three doses of PTX at 25 mg/kg intravenously every other day (days 1, 3 and 5). Vehicle control or EQ was administered daily starting on day 1 and tissues were harvested at day 19. Immediately before tissue harvest, sensory nerve conduction studies and thermal sensation measurements were carried out.
# [8] = system: mouse model of HIV-associated sensory neuropathy; test: Mouse model of HIV-associated sensory neuropathy; format: in vivo; details: 75 μg/kg/day; data not shown
# [9] = system: diabetic rats; test: Diabetic rats: distal axonal degeneration and autonomic testing; format: in vivo, rat; details: data not shown
substance,measurement,setting,value
Ethoxyquin [EQ],effect on ATPase activity of hsp90,[1],does not affect the ATPase activity of hsp90; also recorded: does not alter the ATPase activity of hsp90
same,neuroprotection against paclitaxel with hsp90 siRNA,"[2]; PTX+100 nM EQ (+) siRNA, hsp90 downregulated",the neuroprotection by EQ disappeared; also recorded: reverses neuroprotection by EQ
same,neuroprotection against paclitaxel without hsp90 siRNA,[2]; PTX+100 nM EQ (−) siRNA,Neuroprotection by EQ can be seen
same,effect on paclitaxel's reduction of cell viability (relative ATP levels),[3],did not affect the ability of paclitaxel to reduce cell viability; also recorded: no significant change in reduced cell viability was observed
same,distal axonal degeneration induced by PTX (axon lengths),[4],partially prevented distal axonal degeneration induced by PTX
same,effect on binding of paclitaxel to hsp90,[5],did not affect the binding of paclitaxel to hsp90; also recorded: does not alter the binding efficacy of paclitaxel to hsp90
same,Kd,[6],280 nM
same,sensory nerve action potential (SNAP) amplitude,[7]; tail sensory nerves,prevented this reduction in SNAP amplitude
same,distal axonal degeneration and intraepidermal nerve fiber density in the footpads,[7],loss of distal axons was prevented
same,thermal hypoalgesia induced by PTX,[7],prevented
same,distal axonal degeneration,[8],prevents distal axonal degeneration
same,distal axonal degeneration,[9]; 75 μg/kg/day,reverses distal axonal degeneration
same,erectile dysfunction induced by diabetes (autonomic testing),[9],prevents erectile dysfunction induced by diabetes
